Results reported in patent US10334829B2, “IMiD screening methods IMiD-sensitive cells with mutant CRBN” (THE BROAD INSTITUTE, INC., priority 2013, dated 2019).
Entries after “also recorded” stand apart in the source; their conditions may differ. Residues, ends and D or L forms follow the SMILES beside them. *: point of attachment. Cbz = O=C(OCc1ccccc1)*

Tests used:
[1] = target: T1, CSNK1A1 (Homo sapiens, UniProt P48729+Q96SW2); assay: Immunoblot of CSNK1A1 (CK1α) protein in human cell lines; format: cell-based; settings: KG-1 cells, 6 hours
T1 construct: endogenous in cells; host or cells: KG-1
Method: Protein lysates were run on Tris-HCl, 1 mm Criterion™ Precast gels (Bio-Rad) or NuPAGE Bis-Tris gels (Novex) gels at a constant voltage. Proteins were transferred onto Immobilon-P transfer membranes (Millipore) at a constant amperage. Before staining with primary antibodies, blots were blocked in 5% non-fat dry milk (Santa Cruz) or BSA in TBST for 30 minutes.
Secondary antibodies were HRP conjugated Bovine anti-Goat (Jackson ImmunoResearch) and HRP conjugated donkey anti-rabbit (GE Healthcare). Supersignal chemi-luminescent substrate was used for detection. For re-probing, blots were stripped in Restore Western Blot Stripping Buffer (Thermo Scientific), activated in methanol, and re-blocked.

[2] = tested on: IKZF1 and IKZF3; assay: Immunoblot of IKZF1 and IKZF3 protein in multiple myeloma cells; format: cell-based, human
Method: The FK2 antibody detects covalently linked ubiquitin.
Protein lysates were run on Tris-HCl, 1 mm Criterion™ Precast gels (Bio-Rad) at a constant voltage. Proteins were transferred onto Imobilon-P transfer membranes (Millipore) at a constant amperage. Before staining, blots were blocked in 5% BSA in TBST for 30 minutes.

[3] = tested on: IKZF1 and IKZF3; assay: ORF-firefly luciferase reporter assay in 293T cells; format: cell-based, human; settings: 1 μM MLN-4924
[4] = tested on: MM1S cells; assay: CellTiter-Glo luminescent cell viability assay; format: cell-based, human; settings: MM1S (sensitive) versus K562 (insensitive) cells, 6 days
Method: FIGS. 2A, 2B-1, 2B-2 and 2C are provided. […] For a biological replicate SILAC labeling for the two conditions was switched.
On the respective days, total cellular ATP content was assessed using CellTiter-Glo® Luminescent Cell Viability Assay (Promega) according to the protocol. Luminescence was assessed by a multimode detector DTX880 (Beckman Coulter).

[5] = tested on: IKZF3; assay: Immunoblot of IKZF3 in T cells isolated from mCRBN^I391V knock-in or wild type mice; format: cell-based, mouse; settings: 0, 1 or 10 μM
From the text: IKZF3 protein levels was detected by immunoblot (IB). Actin was included as a protein loading control.

[6] = tested on: IRF4; assay: IRF4 protein and mRNA levels in MM1S cells; format: cell-based, human
From the text: FIG. 14E is a graph showing IRF4 RNA expression levels after IKZF3 knockdown.

[7] = target: T2, CBR1 (Homo sapiens, UniProt P16152); assay: CBR1 biochemical assays
T2 sequence (P16152 1-277): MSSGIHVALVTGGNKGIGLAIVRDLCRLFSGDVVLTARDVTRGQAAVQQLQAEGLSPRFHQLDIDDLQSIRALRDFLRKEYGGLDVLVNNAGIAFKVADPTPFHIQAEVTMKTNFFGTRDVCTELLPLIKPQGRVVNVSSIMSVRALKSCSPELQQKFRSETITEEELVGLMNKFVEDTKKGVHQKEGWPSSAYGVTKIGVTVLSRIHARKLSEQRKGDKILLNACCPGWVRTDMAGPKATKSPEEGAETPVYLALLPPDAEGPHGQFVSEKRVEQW

[8] = tested on: CSNK1A1; assay: Immunoblot of CSNK1A1 in murine Baf3 and primary murine AML cells, with or without expressed CRBN variants; format: cell-based, mouse
Method: CSNK1A1 protein levels were assessed by immunoblot. […] Non-conserved amino acids are indicated by red bars.
Variants of human and mouse CRBN were cloned into a modified pRSF91 backbone to generate SFFV-CRBN-IRES-GFP-T2A-Puro retroviral constructs. 200,000 Ba/F3 cells were infected with ecotropic retrovirus in the presence of 2 μg/ml polybrene. After 24 hours, 1 μg/ml puromycin (Gibco) was added and cells were selected for 3-4 days. […] Protein lysates were harvested and immunoblotted for CK1α as described above.

[9] = tested on: CSNK1A1; assay: RQ-PCR of CSNK1A1 mRNA in human cells; format: cell-based
Method: Relative expression levels were calculated using the ΔΔCT method.

[10] = target: T3, RAB28 (Homo sapiens, UniProt P51157); assay: ORF-firefly luciferase reporter assay in 293T cells; format: cell-based; settings: 1 μM lenalidomide, 24 hours
T3 construct: expressed in transfected cells; host or cells: 293T
Method: The cDNAs of candidate genes, fused to firefly luciferase (FFluc), were expressed in 293T cells.
The luciferase reporter plasmid CMV-IRES-RenillaLUC-IRES-Gateway-FireflyLUC (11) was a kind gift from William G. Kaelin (Dana-Farber Cancer Institute). Cloning of cDNAs was performed using Gateway LR reaction (invitrogen). […] After an additional 24 hours, dual luciferase assays were performed using the Dual-Glo Luciferase Assay System (Promega) according to the manufacturer's protocol.

T1 sequence (P48729 whole entry): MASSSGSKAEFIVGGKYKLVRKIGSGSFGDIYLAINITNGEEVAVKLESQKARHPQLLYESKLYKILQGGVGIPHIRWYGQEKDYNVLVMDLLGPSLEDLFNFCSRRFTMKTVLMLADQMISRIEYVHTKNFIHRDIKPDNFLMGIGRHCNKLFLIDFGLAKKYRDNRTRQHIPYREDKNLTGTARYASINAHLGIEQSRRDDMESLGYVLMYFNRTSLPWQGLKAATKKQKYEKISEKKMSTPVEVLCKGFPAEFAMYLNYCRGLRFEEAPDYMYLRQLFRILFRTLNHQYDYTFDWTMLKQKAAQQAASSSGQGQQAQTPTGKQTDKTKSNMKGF
T1 sequence (Q96SW2 whole entry): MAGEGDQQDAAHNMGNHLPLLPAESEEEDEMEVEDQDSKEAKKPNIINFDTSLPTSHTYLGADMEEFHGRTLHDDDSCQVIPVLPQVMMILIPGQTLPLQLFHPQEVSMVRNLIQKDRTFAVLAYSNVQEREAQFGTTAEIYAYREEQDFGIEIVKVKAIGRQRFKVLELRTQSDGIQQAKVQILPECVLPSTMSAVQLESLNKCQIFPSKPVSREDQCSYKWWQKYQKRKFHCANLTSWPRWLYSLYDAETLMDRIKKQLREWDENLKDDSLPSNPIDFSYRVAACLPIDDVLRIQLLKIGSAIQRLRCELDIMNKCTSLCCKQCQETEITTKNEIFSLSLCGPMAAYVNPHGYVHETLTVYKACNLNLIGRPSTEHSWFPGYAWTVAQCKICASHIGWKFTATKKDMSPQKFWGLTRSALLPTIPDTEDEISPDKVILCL
T1 sequence (Q16531 whole entry partner): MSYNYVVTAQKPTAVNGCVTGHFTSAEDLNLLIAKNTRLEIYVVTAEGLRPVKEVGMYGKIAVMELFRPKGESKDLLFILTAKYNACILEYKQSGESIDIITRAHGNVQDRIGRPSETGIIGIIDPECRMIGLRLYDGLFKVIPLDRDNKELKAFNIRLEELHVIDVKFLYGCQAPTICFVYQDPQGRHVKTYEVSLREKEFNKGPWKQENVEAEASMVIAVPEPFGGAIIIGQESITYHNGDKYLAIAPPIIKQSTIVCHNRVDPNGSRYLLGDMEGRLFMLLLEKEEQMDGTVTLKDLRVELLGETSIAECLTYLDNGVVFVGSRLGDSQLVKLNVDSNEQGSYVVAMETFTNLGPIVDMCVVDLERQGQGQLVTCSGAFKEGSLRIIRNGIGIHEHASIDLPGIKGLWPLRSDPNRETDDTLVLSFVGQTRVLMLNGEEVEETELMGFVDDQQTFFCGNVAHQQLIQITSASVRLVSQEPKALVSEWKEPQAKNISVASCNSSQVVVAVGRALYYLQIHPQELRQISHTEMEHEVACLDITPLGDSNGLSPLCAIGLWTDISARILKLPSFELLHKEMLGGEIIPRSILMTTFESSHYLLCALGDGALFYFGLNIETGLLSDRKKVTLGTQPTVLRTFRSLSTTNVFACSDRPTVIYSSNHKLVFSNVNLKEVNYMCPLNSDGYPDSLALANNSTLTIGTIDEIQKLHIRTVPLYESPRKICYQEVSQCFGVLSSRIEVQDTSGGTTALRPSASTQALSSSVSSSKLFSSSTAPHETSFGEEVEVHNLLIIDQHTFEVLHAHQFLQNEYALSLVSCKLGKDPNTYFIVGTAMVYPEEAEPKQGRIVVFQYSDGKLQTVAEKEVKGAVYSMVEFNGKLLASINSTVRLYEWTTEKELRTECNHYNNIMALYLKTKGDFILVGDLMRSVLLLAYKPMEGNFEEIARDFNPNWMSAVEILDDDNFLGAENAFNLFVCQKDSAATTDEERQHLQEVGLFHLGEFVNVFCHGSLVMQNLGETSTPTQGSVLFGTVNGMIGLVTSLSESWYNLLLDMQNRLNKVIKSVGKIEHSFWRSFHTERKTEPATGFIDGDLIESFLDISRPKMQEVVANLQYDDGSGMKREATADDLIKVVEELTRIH

Compound: NS(=O)(=O)OC[C@@H]1C[C@@H](n2ccc3c(N[C@H]4CCc5ccccc54)ncnc32)C[C@@H]1O [MLN-4924]
- Effect on lenalidomide-induced decrease in CSNK1A1 protein levels [1]: abrogated
- Effect on lenalidomide-induced decrease of endogenous IKZF1 and IKZF3 ([2]; MM cells, 1 μM MLN-4924): prevented the lenalidomide-induced decrease
- Effect on lenalidomide-induced decrease of FFluc-fused IKZF3 [3]: prevented the lenalidomide-induced decrease

Compound: CC(C)C[C@@H](C=O)NC(=O)[C@H](CC(C)C)NC(=O)[C@H](CC(C)C)NC(=O)OCc1ccccc1 [MG132] (Cbz-Leu-Leu-Leu-aldehyde)
- Effect on lenalidomide-induced decrease in CSNK1A1 protein levels [1]: abrogated

Compound: CCCCNC(=O)CCCNc1cccc2c1CN(C1CCC(=O)NC1=O)C2=O (stereo not drawn) [lenalidomide derivative, N-butyl-4-((2-(2,6-dioxopiperidin-3-yl)-1-oxoisoindolin-4-yl)amino)butanamide]
- Biological activity / growth inhibition compared with lenalidomide [4]: retained the biological activity of lenalidomide, including selective growth inhibition of multiple myeloma cells

Compound: Nc1cccc2c1CN(C1CCC(=O)NC1=O)C2=O (stereo not drawn) [lenalidomide]
- IKZF3 degradation in T cells from wild type mice [5]: No IKZF3 degradation was observed
- IRF4 levels in proteomic analysis ([6]; 12 hours): only slightly decreased
- IRF4 mRNA and protein ([6]; 24 hours and longer): decreased expression of IRF4; also recorded: significant decrease of IRF4 mRNA and protein
- Inhibition of CBR1 [7]: did not interact with CBR1 in direct binding assays or inhibit CBR1
- CSNK1A1 degradation in Baf3 cells expressing mCRBN^I391V [8]: conferred sensitivity to lenalidomide-induced degradation of CSNK1A1
- CSNK1A1 protein levels in murine cells over-expressing human CRBN [8]: sufficient to confer lenalidomide sensitivity to CSNK1A1; also recorded: reduced CSNK1A1 levels; also recorded: resulted in a decrease of CSNK1A1 protein levels
- CSNK1A1 protein levels in murine Baf3 cells or primary murine (MLL-AF9) leukemia cells ([8]; unmodified cells, 24 hours): No change; also recorded: did not decrease Csnk1a1 protein levels
- Degradation of IKZF1 and IKZF3 with CRBN mutant that does not bind lenalidomide [2]: abrogated degradation of IKZF1 and IKZF3
- CSNK1A1 mRNA / RNA expression [9]: No significant change; also recorded: did not alter CSNK1A1 mRNA levels
- Luciferase level of FFluc fused to RAB28 [10]: not altered
